{"source": "PubChem BioAssay (NCI)", "assay_in_all_cases": "DTP human tumour cell line panel, 48 h", "key": {"[1]": {"test_system": "M14 melanoma"}, "[2]": {"test_system": "SK-MEL-2 melanoma"}, "[3]": {"test_system": "MOLT-4 leukemia"}, "[4]": {"test_system": "EKVX NSCLC"}, "[5]": {"test_system": "SK-MEL-28 melanoma"}, "[6]": {"test_system": "UACC-257 melanoma"}, "[7]": {"test_system": "K-562 leukemia"}, "[8]": {"test_system": "IGROV1 ovarian"}, "[9]": {"test_system": "OVCAR-5 ovarian"}, "[10]": {"test_system": "TK-10 renal"}, "[11]": {"test_system": "RXF 393 renal"}, "[12]": {"test_system": "SK-OV-3 ovarian"}, "[13]": {"test_system": "COLO 205 colon"}, "[14]": {"test_system": "NCI-H522 lung"}, "[15]": {"test_system": "HOP-92 NSCLC"}, "[16]": {"test_system": "T-47D breast"}, "[17]": {"test_system": "A549 NSCLC"}, "[18]": {"test_system": "HCC-2998 colon"}, "[19]": {"test_system": "MDA-N"}, "[20]": {"test_system": "A498 renal"}, "[21]": {"test_system": "BT-549 breast"}, "[22]": {"test_system": "NCI-H460 lung"}, "[23]": {"test_system": "UACC-62 melanoma"}, "[24]": {"test_system": "PC-3 prostate"}, "[25]": {"test_system": "SW-620 colon"}, "[26]": {"test_system": "NCI-H226 lung"}, "[27]": {"test_system": "HOP-62 NSCLC"}, "[28]": {"test_system": "U251 CNS"}, "[29]": {"test_system": "MCF7 breast"}, "[30]": {"test_system": "OVCAR-3 ovarian"}, "[31]": {"test_system": "OVCAR-4 ovarian"}, "[32]": {"test_system": "UO-31 renal"}, "[33]": {"test_system": "ACHN renal"}, "[34]": {"test_system": "HCT-116 colon"}, "[35]": {"test_system": "MDA-MB-231 breast"}, "[36]": {"test_system": "SNB-19 CNS"}, "[37]": {"test_system": "KM12 colon"}, "[38]": {"test_system": "CCRF-CEM leukemia"}, "[39]": {"test_system": "SK-MEL-5 melanoma"}, "[40]": {"test_system": "RPMI-8226 leukemia"}, "[41]": {"test_system": "SF-295 CNS"}, "[42]": {"test_system": "HL-60(TB) leukemia"}, "[43]": {"test_system": "NCI/ADR-RES ovarian"}, "[44]": {"test_system": "MALME-3M melanoma"}, "[45]": {"test_system": "786-0 renal"}, "[46]": {"test_system": "LOX IMVI melanoma"}, "[47]": {"test_system": "SNB-75 CNS"}, "[48]": {"test_system": "HCT-15 colon"}, "[49]": {"test_system": "CAKI-1 renal"}, "[50]": {"test_system": "SF-539 CNS"}, "[51]": {"test_system": "HS 578T breast"}, "[52]": {"test_system": "OVCAR-8 ovarian"}, "[53]": {"test_system": "MDA-MB-435"}, "[54]": {"test_system": "NCI-H23 lung"}, "[55]": {"test_system": "SF-268 CNS"}, "[56]": {"test_system": "SN12C renal"}}, "note": "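96-well plates; 48 h exposure; 5 concentrations. Endpoints by linear interpolation between flanking doses. Not reached: highest tested concentration assigned. GI50 is the concentration that inhibits growth by half. TGI denotes the concentration required for complete inhibition of growth.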"}
{"molecule": "C[C@H]1CCC/C=C/[C@@H]2C[C@H](O)C[C@H]2[C@H](O)[C@H](S(=O)c2ccc(O)cc2)CC(=O)O1", "note": "(stereo partly drawn)", "values": [{"measurement": "GI50", "setting": "[1]", "value": 0.033, "unit": "µM"}, {"measurement": "TGI", "setting": "[1]", "value": "> 100", "unit": "µM"}, {"measurement": "GI50", "setting": "[2]", "value": 0.0485, "unit": "µM"}, {"measurement": "TGI", "setting": "[2]", "value": 0.504, "unit": "µM"}, {"measurement": "GI50", "setting": "[3]", "value": "< 0.0212", "unit": "µM"}, {"measurement": "GI50", "setting": "[4]", "value": 0.0824, "unit": "µM"}, {"measurement": "TGI", "setting": "[4]", "value": "> 36.9", "unit": "µM"}, {"measurement": "GI50", "setting": "[5]", "value": 0.0316, "unit": "µM"}, {"measurement": "TGI", "setting": "[5]", "value": "> 100", "unit": "µM"}, {"measurement": "GI50", "setting": "[6]", "value": 0.0222, "unit": "µM"}, {"measurement": "GI50", "setting": "[7]", "value": 0.0994, "unit": "µM"}, {"measurement": "TGI", "setting": "[7]", "value": "> 100", "unit": "µM"}, {"measurement": "GI50", "setting": "[8]", "value": 0.147, "unit": "µM"}, {"measurement": "GI50", "setting": "[9]", "value": 0.0613, "unit": "µM"}, {"measurement": "GI50", "setting": "[10]", "value": 0.0392, "unit": "µM"}, {"measurement": "TGI", "setting": "[10]", "value": 2.18, "unit": "µM"}, {"measurement": "GI50", "setting": "[11]", "value": "< 0.0106", "unit": "µM"}, {"measurement": "TGI", "setting": "[11]", "value": 0.061, "unit": "µM"}, {"measurement": "GI50", "setting": "[12]", "value": "< 0.0205", "unit": "µM"}, {"measurement": "GI50", "setting": "[13]", "value": 0.0183, "unit": "µM"}, {"measurement": "TGI", "setting": "[13]", "value": 0.0544, "unit": "µM"}, {"measurement": "GI50", "setting": "[14]", "value": 0.141, "unit": "µM"}, {"measurement": "TGI", "setting": "[14]", "value": 3.34, "unit": "µM"}, {"measurement": "GI50", "setting": "[15]", "value": 0.0529, "unit": "µM"}, {"measurement": "TGI", "setting": "[15]", "value": "> 100", "unit": "µM"}, {"measurement": "GI50", "setting": "[16]", "value": 0.2, "unit": "µM"}, {"measurement": "TGI", "setting": "[16]", "value": 0.67, "unit": "µM"}, {"measurement": "GI50", "setting": "[17]", "value": 0.0422, "unit": "µM"}, {"measurement": "TGI", "setting": "[17]", "value": "> 100", "unit": "µM"}, {"measurement": "GI50", "setting": "[18]", "value": 0.0278, "unit": "µM"}, {"measurement": "TGI", "setting": "[18]", "value": 0.0951, "unit": "µM"}, {"measurement": "GI50", "setting": "[19]", "value": 0.0409, "unit": "µM"}, {"measurement": "GI50", "setting": "[20]", "value": 0.0307, "unit": "µM"}, {"measurement": "TGI", "setting": "[20]", "value": 0.0716, "unit": "µM"}, {"measurement": "GI50", "setting": "[21]", "value": 0.0472, "unit": "µM"}, {"measurement": "TGI", "setting": "[21]", "value": "> 100", "unit": "µM"}, {"measurement": "GI50", "setting": "[22]", "value": 0.0168, "unit": "µM"}, {"measurement": "TGI", "setting": "[22]", "value": 0.0703, "unit": "µM"}, {"measurement": "GI50", "setting": "[23]", "value": 0.0349, "unit": "µM"}, {"measurement": "TGI", "setting": "[23]", "value": "> 100", "unit": "µM"}, {"measurement": "GI50", "setting": "[24]", "value": 0.0343, "unit": "µM"}, {"measurement": "GI50", "setting": "[25]", "value": 0.0506, "unit": "µM"}, {"measurement": "TGI", "setting": "[25]", "value": "> 100", "unit": "µM"}, {"measurement": "GI50", "setting": "[26]", "value": 0.0344, "unit": "µM"}, {"measurement": "TGI", "setting": "[26]", "value": 0.146, "unit": "µM"}, {"measurement": "GI50", "setting": "[27]", "value": 0.0855, "unit": "µM"}, {"measurement": "TGI", "setting": "[27]", "value": "> 65.6", "unit": "µM"}, {"measurement": "GI50", "setting": "[28]", "value": 0.0403, "unit": "µM"}, {"measurement": "TGI", "setting": "[28]", "value": "> 77.4", "unit": "µM"}, {"measurement": "GI50", "setting": "[29]", "value": 0.0323, "unit": "µM"}, {"measurement": "GI50", "setting": "[30]", "value": 0.021, "unit": "µM"}, {"measurement": "TGI", "setting": "[30]", "value": 1.02, "unit": "µM"}, {"measurement": "GI50", "setting": "[31]", "value": 0.0231, "unit": "µM"}, {"measurement": "TGI", "setting": "[31]", "value": 0.978, "unit": "µM"}, {"measurement": "GI50", "setting": "[32]", "value": 0.0205, "unit": "µM"}, {"measurement": "TGI", "setting": "[32]", "value": 0.519, "unit": "µM"}, {"measurement": "GI50", "setting": "[33]", "value": 0.0654, "unit": "µM"}, {"measurement": "TGI", "setting": "[33]", "value": 0.41, "unit": "µM"}, {"measurement": "GI50", "setting": "[34]", "value": 0.0256, "unit": "µM"}, {"measurement": "TGI", "setting": "[34]", "value": 0.0633, "unit": "µM"}, {"measurement": "GI50", "setting": "[35]", "value": 0.0245, "unit": "µM"}, {"measurement": "TGI", "setting": "[35]", "value": 0.0533, "unit": "µM"}, {"measurement": "GI50", "setting": "[36]", "value": 0.187, "unit": "µM"}, {"measurement": "TGI", "setting": "[36]", "value": "> 100", "unit": "µM"}, {"measurement": "GI50", "setting": "[37]", "value": "< 0.0146", "unit": "µM"}, {"measurement": "GI50", "setting": "[38]", "value": 0.048, "unit": "µM"}, {"measurement": "TGI", "setting": "[39]", "value": 0.121, "unit": "µM"}, {"measurement": "GI50", "setting": "[40]", "value": 0.0922, "unit": "µM"}, {"measurement": "TGI", "setting": "[40]", "value": 2.52, "unit": "µM"}, {"measurement": "GI50", "setting": "[41]", "value": 0.0698, "unit": "µM"}, {"measurement": "TGI", "setting": "[41]", "value": "> 100", "unit": "µM"}, {"measurement": "GI50", "setting": "[42]", "value": 0.0338, "unit": "µM"}, {"measurement": "TGI", "setting": "[42]", "value": 0.139, "unit": "µM"}, {"measurement": "GI50", "setting": "[43]", "value": 0.0174, "unit": "µM"}, {"measurement": "TGI", "setting": "[43]", "value": 0.0758, "unit": "µM"}, {"measurement": "GI50", "setting": "[44]", "value": 0.0202, "unit": "µM"}, {"measurement": "TGI", "setting": "[44]", "value": 0.0709, "unit": "µM"}, {"measurement": "GI50", "setting": "[45]", "value": 0.0251, "unit": "µM"}, {"measurement": "TGI", "setting": "[45]", "value": 0.0793, "unit": "µM"}, {"measurement": "GI50", "setting": "[46]", "value": 0.0208, "unit": "µM"}, {"measurement": "TGI", "setting": "[46]", "value": 0.0533, "unit": "µM"}, {"measurement": "GI50", "setting": "[47]", "value": "< 0.018", "unit": "µM"}, {"measurement": "TGI", "setting": "[47]", "value": "> 100", "unit": "µM"}, {"measurement": "GI50", "setting": "[48]", "value": 0.0443, "unit": "µM"}, {"measurement": "TGI", "setting": "[48]", "value": 1.69, "unit": "µM"}, {"measurement": "GI50", "setting": "[49]", "value": 0.114, "unit": "µM"}, {"measurement": "GI50", "setting": "[50]", "value": "< 0.0157", "unit": "µM"}, {"measurement": "TGI", "setting": "[50]", "value": "> 36.4", "unit": "µM"}, {"measurement": "GI50", "setting": "[51]", "value": 0.0726, "unit": "µM"}, {"measurement": "TGI", "setting": "[51]", "value": "> 100", "unit": "µM"}, {"measurement": "GI50", "setting": "[52]", "value": "< 0.0167", "unit": "µM"}, {"measurement": "TGI", "setting": "[52]", "value": 0.238, "unit": "µM"}, {"measurement": "GI50", "setting": "[53]", "value": 0.0417, "unit": "µM"}, {"measurement": "GI50", "setting": "[54]", "value": 0.0273, "unit": "µM"}, {"measurement": "TGI", "setting": "[54]", "value": 0.143, "unit": "µM"}, {"measurement": "TGI", "setting": "[55]", "value": "> 100", "unit": "µM"}, {"measurement": "GI50", "setting": "[56]", "value": 0.0497, "unit": "µM"}, {"measurement": "TGI", "setting": "[56]", "value": 0.489, "unit": "µM"}]}
